Series [1] can be described thus: Weight change of tumor-bearing mice to assess toxic effects. Type of series: in vivo. The conditions noted are these: 98 mg/kg, i.p., qd (1,7,14,21). The source says:
(§1) Anticancer activities of n-T4GEN were studied in animals bearing subcutaneous transplants of C3H Mammary adenocarcinoma 16/C. This tumor is maintained as a lung passed tumor in C3H female mice. In this example, tumors (1×10^6 cells) were transplanted (S.C.) in 18-20 g B6C3F^1 hybrid female mice. On the following day, the tumor bearing animals were randomized and separated into different treatment groups (10 mice per group). There were 15 animals in the control group who received only physiological saline during the treatment periods. The treatments (i.p.) were started 48 hours after the transplants and given for a duration of 14 days (daily single injections). Animals were weighed on days 5, 9 and 14 to assess toxic effects. Tumors were measured on days 21, 28 post transplants and the results are represented as tumor weights using formula [formula]

Series [2] relates to C3H Mammary adenocarcinoma 16/C. The experiment in a line: Growth of subcutaneous transplants of C3H mammary adenocarcinoma 16/C in B6C3F1 female mice. Type of series: in vivo. The conditions noted are these: 98 mg/kg, i.p., qd (1,7,14,21).
Excerpt: as §1, with “The treatments (i.p.) were started 48 hours after the transplants and given for a duration of 14 days (daily single injections).” left out

Regarding `O=c1[nH]cc(F)c(=O)[nH]1` [5Fluorouracil], in series [1], the “Δ Wts (g) (day 14)” value was “+1.77 g”. In series [2], the “Tumor Free Animals (day 93)” value is 0/6, the “Tumor Inhibition %” value came to 100% and the “Tumor Wts (day 21)” value was 0.00.

For the origin of these results see patent US5565200A, “Pharmaceutical preparations derived from korean mistletoe” (priority 1995, dated 1996).
